Non-standard residues stand in square brackets, D forms with d. No end group written: not given here.

The subject of the test is TCR. Briefly: Fluorescence microscopy: co-localization and fluorescence energy transfer with TCR on activated A2b T cells. It is filed as binding, rat. As for the experimental part: Activated A2b T cells (van Eden et al., 1988) (10^5 cells/sample) were incubated in 100 μl of PBS containing Para-formaldehyde 4% for 15 min on ice. The samples were then washed with cold PBS and centrifuged for 7 min at 1100 rpm. PBS containing BSA 1% was then added at room temperature to prevent non-specific binding. After 30 min FITC-labeled antibody against TCR was added at dilution of 1:100 and incubated for 2.5 hr. For co-localization of TCR with the peptide, Rhodamine 2D-CP was added at a final concentration of 1 μM (stock in DMSO) and incubated for 5 min. Sample were then washed once with PBS and loaded on a microscope slide.
The cells were then observed under a fluorescent confocal microscope. […] Fluorescence data was collected from 505-525 nm. […] Fluorescence data was collected from 560 nm and up.
Fluorescence energy transfer between the FITC (donor) and rhodamine (acceptor) was detected as an increase in FITC fluorescence in an area where the rhodamine probe was bleached. […] To verify that the increase in FITC fluorescence is not due to auto fluorescence, bleaching was performed using the 488 nm laser first and only then at 543 nm. […]
To confirm these co-localization results, the inventors performed fluorescence energy transfer experiments between Rhodamine 2D-CP and αTCR-FITC. […] To rule out auto-fluorescence as a source of increased signal in the […] range, two controls were used. […]

As for “GLRILLLKV [2D-CP] (GL[dR]ILLL[dK]V-NH2; also: rhodamine label, position not given here) [CP diastereomer]”, the “Co-localization with the TCR on the T-cell membrane” value (rhodamine-labeled peptide 1 μM, αTCR-FITC, activated A2b T cells) is “co-localizes with the TCR”. The “Fluorescence energy transfer between rhodamine peptide and αTCR-FITC after bleaching at 543 nm” value (rhodamine-labeled peptide, point bleach 6 sec) is recorded as “significant increase in the fluorescence of the αTCR-FITC”.
